In series [1] the test system is MCAO model rats. The experiment in a line: Therapeutic effect on MCAO model rats (cerebral infarction volume, TTC staining). Particulars: rat, in vivo. Here is the method: The focal cerebral ischemia-reperfusion model was prepared according to the reversible middle cerebral artery occlusion (MCAO) suture method proposed by Longa with modifications in view of the anatomical structure of the rat brain. The rats were anesthetized by intraperitoneal administration of 10% chloral hydrate at a dose of […]. After anesthetization, a cut was created at the cervical midline, and the common carotid artery (CCA), external carotid artery (ECA) and pterygopalatine artery were exposed. The head portion (0.5 cm) of a monofilament nylon fishing line (0.26 mm) was coated with paraffin and a mark was made at 20 mm. All rats were inserted through the right CCA incision, and the pterygopalatine artery was temporarily clamped to prevent mis-insertion. The length of the occlusion line was about 18-20 mm from the bifurcation of CCA depending on the animal's weight, thereby occluding middle cerebral artery on the right side. The skin was then sewed, and the tail end of the occlusion line was partially fixed to the skin. After a period of ischemia for 2 hours, the occlusion line was carefully pulled out to form a reperfusion. The procedure steps for the sham control were the same as the surgery group, except for insertion of a nylon fishing line. The body temperature was maintained at 37±0.5° C. during the ischemia period and 2 h after reperfusion.
The used animals were male adult SD rats (Vittalia) of SPF grade with body weight of 220-250 g.
No drug was administered to the normal group and the sham group.
The rats were sacrificed by decapitation after scoring. The brain tissues were quickly removed and placed in a refrigerator at −20° C. After 10 minutes, the tissues were placed in a room temperature environment. The brains were placed in a rat brain section mold. After the olfactory bulb, cerebellum and low brain stem were removed, the brains were coronally cut five times at 2 mm thickness as shown in the profile to obtain six continuous raw coronal slices. Then, the brain sections were quickly placed in a 5 ml solution containing 2% TTC, and incubated at 37° C. for 30 minutes in the dark, during which the brain sections were flipped once every 5 minutes. With the TTC staining, the normal tissue would be rose red, and the infarcted tissue would be unstained and retained white. Each group of brain sections was arranged neatly, and photographed. The photos were processed by an image analysis system software and statistically analyzed. The infarction area of each brain section was calculated, and multiplied by the thickness of each brain section (2 mm). The products of the infarction area of individual brain section multiplied by the thickness were summed to obtain the cerebral infarction volume for each animal. The volumes were expressed as percentages accounting for the cerebral hemisphere to eliminate the effects of cerebral edema.

Series [2] relates to MCAO model rats. The experiment in a line: HE staining for histological changes of rat brain after ischemia. The series is classed as in vivo. Particulars: 10 mg/kg, 24 h after ischemia. The method, then:
The rats in each group were decapitated at 24 h after ischemia, and the resultant brain was coronally sectioned near the optic chiasm with a thickness of about 4 mm. The sections were fixed with 10% formalin solution and dehydrated with alcohol with a concentration gradient from 70% to 100%. The sections were permeabilized twice in xylene, and embedded in paraffin. The paraffin block was carefully trimmed, and immobilized on a paraffin slicing machine, and sliced to sections with a thickness of 4 μm. The paraffin sections were completely unfolded, attached to a clean and dry glass slide, and stored in a refrigerator at 4° C. Conventional HE staining was performed, and the staining results were observed by light microscopy.

Series [3] deals with rats. The experiment in a line: Acute toxicity test on rats. The class given is in vivo, rat. Particulars: dose of 200 mg/kg body weight. The method, then: Acute toxicity tests were performed on rats.

Several values for one entry are separate records, joined by “and”; a condition that tells them apart may be missing. Identical values can stand only once. Peptide text beside a SMILES is read from it.

For `CC[C@H](C)[C@H](NC(=O)[C@H](CO)NC(=O)[C@H](CO)NC(=O)[C@H](CC(C)C)NC(=O)[C@H](CCCCN)NC(=O)[C@H](CCCNC(=N)N)NC(=O)[C@H](CCCNC(=N)N)NC(=O)[C@H](CCCNC(=N)N)NC(=O)[C@H](CCC(N)=O)NC(=O)[C@H](CCCNC(=N)N)NC(=O)[C@H](CCCNC(=N)N)NC(=O)[C@H](CCCCN)NC(=O)[C@H](CCCCN)NC(=O)[C@H](CCCNC(=N)N)NC(=O)CNC(=O)[C@@H](N)Cc1ccc(O)cc1)C(=O)N[C@@H](CCC(=O)O)C(=O)N[C@@H](CO)C(=O)N[C@@H](CC(=O)O)C(=O)N[C@H](C(=O)O)C(C)C` [NA-1, reference compound] (H-YGRKKRRQRRRKLSSIESDV-OH), in series [1], the “Mean of infarction volume percentage (%)” value came out at 38.56%.
For the molecule `CC[C@H](C)[C@H](NC(=O)[C@H](CCC(=O)O)NC(=O)[C@@H](NC(=O)[C@H](CC(=O)O)NC(=O)[C@H](CC(C)C)NC(=O)[C@H](CC(C)C)NC(=O)[C@H](CCCCN)NC(=O)[C@H](CCC(=O)O)NC(=O)[C@H](Cc1ccc(O)cc1)NC(=O)[C@H](CCCNC(=N)N)NC(=O)[C@H](CCCNC(=N)N)NC(=O)[C@H](CCCNC(=N)N)NC(=O)[C@H](CCC(N)=O)NC(=O)[C@H](CCCNC(=N)N)NC(=O)[C@H](CCCNC(=N)N)NC(=O)[C@H](CCCCN)NC(=O)[C@H](CCCCN)NC(=O)[C@H](CCCNC(=N)N)NC(=O)CNC(=O)[C@@H](N)Cc1ccc(O)cc1)[C@@H](C)O)C(=O)O` [P5], the “Mean of infarction volume percentage (%)” value in series [1] is 24.84% and 36.54% and 43.22%; in series [1] (1 mg/kg), 44.23%; in series [1] (3 mg/kg) it was 35.66%; in series [1] (10 mg/kg) it was 19.54%. Further, the “Reduction of infarction volume percentage vs model group” value amounted to 3.76% in series [1] (1 mg/kg) and 22.41% in series [1] (3 mg/kg). Further, the “pathological changes of brain tissue (HE staining)” value in series [2] (prophylactic administration) and in series [2] (therapeutic administration) was “significantly improved” in each case. For the same molecule, the acute toxicity entry in series [3] was “no lethal effect and other obvious toxic side effects”.
For the molecule `CC[C@H](C)[C@H](NC(=O)[C@H](CO)NC(=O)[C@H](CO)NC(=O)[C@H](CC(C)C)NC(=O)[C@H](CCCCN)NC(=O)[C@H](CCC(=O)O)NC(=O)[C@H](Cc1ccc(O)cc1)NC(=O)[C@H](CCCNC(=N)N)NC(=O)[C@H](CCCNC(=N)N)NC(=O)[C@H](CCCNC(=N)N)NC(=O)[C@H](CCC(N)=O)NC(=O)[C@H](CCCNC(=N)N)NC(=O)[C@H](CCCNC(=N)N)NC(=O)[C@H](CCCCN)NC(=O)[C@H](CCCCN)NC(=O)[C@H](CCCNC(=N)N)NC(=O)CNC(=O)[C@@H](N)Cc1ccc(O)cc1)C(=O)N[C@@H](CCC(=O)O)C(=O)N[C@@H](CO)C(=O)N[C@@H](CC(=O)O)C(=O)N[C@H](C(=O)O)C(C)C` [YE-NA-1] (H-YGRKKRRQRRRYEKLSSIESDV-OH), the “Mean of infarction volume percentage (%)” value in series [1] is 33.96%.

The values above are taken from US11541098B2, “Peptide composition for treating excitatory neurotoxicity related injuries” (Biocells (Beijing) Biotech Co., Ltd., priority 2017, dated 2023).
